Assay results published in patent US20240067632A1, “WEE1 Degrading Compounds and Uses Thereof” (Bristol-Myers Squibb Company, priority 2022, published 2024).
Where two headings read alike, the source gives them in different places.

Legend:
[1] = target: T1, WEE1 (Homo sapiens, UniProt P30291+Q96SW2); assay: WEE1-ePL degradation assay (LentiX-WEE1-ePL-GSPT1-ND cells, InCELL Hunter luminescence, 4 h); type: cell-based; details: 293T-LentiX WEE1-ePL cells; for DC50: read-out: 293T-LentiX WEE1-ePL Degradation 4 hr (EC50)
T1 construct: C-terminal ePL-tagged (DiscoverX, Fremont, CA) full-length WEE1 expression construct; expressed in transfected cells; host or cells: LentiX-HEK293T (Invitrogen), lentiviral transduction; co-expressing GSPT1-GN (G576N, lacking the first 158 amino acids)
Summary of the method: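 HEK293T cells stably expressing C-terminal ePL-tagged full-length WEE1, 2500 cells/well, treated 4 h at 37° C with a 10-point 3-fold series from 1 or 10 uM. Remaining WEE1-ePL read by InCELL Hunter luminescence after 30 min. EC50 came from a four-parameter logistic fit, with Ymax set from DMSO control.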

[2] = tested on: MKN45 cells; assay: MKN45 cell proliferation assay (Cell-Titer-Glo, 120 h); type: cell-based; details: for EC50: Cell-Titer-Glo, read-out: MKN45 Cell Prolif. 120 hr (EC50); for MKN45 Cell Prolif. 120 hr (Ymin-Obs): minimal percent of DMSO control observed in the concentrations tested
Summary of the method: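 Growth inhibition was read as blank-corrected Cell-Titer-Glo luminescence expressed as percent DMSO control after 120 h at 37 C, 400 cells/well. Compounds tested in triplicate as 10-point half-log series from 1 or 10 uM, 0.1% DMSO; four-parameter fit gave EC50, and lowest observed percent control was reported as Ymin-obs.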

[3] = lower limit of the fit (0 = luciferase inhibitor, Ymax = DMSO control)
[4] = Homo sapiens, MKN-45, 120 h, growth inhibition
[5] = lower limit of the fit (Ymin=0 luciferase inhibitor, Ymax DMSO control)

| SMILES | 293T-LentiX WEE1-ePL Degradation 4 hr (Ymin) [1, 3] | DC50 [1] | EC50 [2, 4] | EC50 ([2]; growth inhibition) | 293T-LentiX WEE1-ePL Degradation 4 hr (Ymin) [1, 5] | EC50 ([2]; Homo sapiens, MKN-45, 120 h) | MKN45 Cell Prolif. 120 hr (Ymin-Obs) [2] |
| --- | --- | --- | --- | --- | --- | --- | --- |
| O=C1CCC(N2Cc3cc(O[C@H]4CCN(Cc5cnc6ccccn56)C4)ccc3C2=O)C(=O)N1 (stereo partly drawn) [3-(5-{[(3S)-1-({imidazo[1,2-a]pyridin-3-yl}methyl)pyrrolidin-3-yl]oxy}-1-oxo-2,3-dihydro-1H-isoindol-2-yl)piperidine-2,6-dione] | 33.52 | 150 nM | 933 nM | – | – | – | 21.75 |
| CC1(C)C[C@H](c2ncc3cc(CN4CC[C@H](Oc5ccc6c(c5)CN(C5CCC(=O)NC5=O)C6=O)C4)ccc3n2)CCO1 (stereo partly drawn) [3-(5-{[(3S)-1-({2-[(4R)-2,2-dimethyloxan-4-yl]quinazolin-6-yl}methyl)pyrrolidin-3-yl]oxy}-1-oxo-2,3-dihydro-1H-isoindol-2-yl)piperidine-2,6-dione] | 27 | 65 nM | 19.7 nM | – | – | – | 9.866 |
| O=C1CCC(N2Cc3cc(O[C@H]4CCN(Cc5ccc6nc(N7CCCC78CCOCC8)ncc6c5)C4)ccc3C2=O)C(=O)N1 (stereo partly drawn) [3-(5-{[(3S)-1-[(2-{8-oxa-1-azaspiro[4.5]decan-1-yl}quinazolin-6-yl)methyl]pyrrolidin-3-yl]oxy}-1-oxo-2,3-dihydro-1H-isoindol-2-yl)piperidine-2,6-dione] | 47 | 18.1 nM | 14.1 nM | – | – | – | 20.87 |
| COC[C@@H]1CCCC[C@H]1c1ccc2cc(CN3CC[C@H](Oc4ccc5c(c4)CN(C4CCC(=O)NC4=O)C5=O)C3)ccc2n1 (stereo partly drawn) [3-(5-{[(3S)-1-({2-[(1R,2R)-2-(methoxymethyl)cyclohexyl]quinolin-6-yl}methyl)pyrrolidin-3-yl]oxy}-1-oxo-2,3-dihydro-1H-isoindol-2-yl)piperidine-2,6-dione] | – | 3.65 nM | – | – | 20.92 | 2.53 nM | 12.91 |
| C[C@@H]1CN(Cc2cc(F)c3nc([C@H]4CCOC4)ccc3c2)C[C@H]1Oc1ccc2c(c1)CN(C1CCC(=O)NC1=O)C2=O (stereo partly drawn) [3-(5-{[(3S,4R)-1-({8-fluoro-2-[(3R)-oxolan-3-yl]quinolin-6-yl}methyl)-4-methylpyrrolidin-3-yl]oxy}-1-oxo-2,3-dihydro-1H-isoindol-2-yl)piperidine-2,6-dione] | – | 1.56 nM | – | – | 30.53 | 1.3 nM | 8.038 |
| O=C1CC[C@H](N2Cc3cc(O[C@H]4CCN(Cc5cc(N6CCC6)c6nc(C7CCOCC7)ccc6c5)C4)ccc3C2=O)C(=O)N1 [(3S)-3-(5-{[(3S)-1-{[8-(azetidin-1-yl)-2-(oxan-4-yl)quinolin-6-yl]methyl}pyrrolidin-3-yl]oxy}-1-oxo-2,3-dihydro-1H-isoindol-2-yl)piperidine-2,6-dione] | – | 26 nM | – | – | 33.36 | 10.8 nM | 3.155 |
| COC[C@@H]1CN(Cc2ccc3nc(C4CCOCC4)ccc3c2)C[C@H]1Oc1ccc2c(c1)CN(C1CCC(=O)NC1=O)C2=O (stereo partly drawn) [3-(5-{[(3S,4S)-4-(methoxymethyl)-1-{[2-(oxan-4-yl)quinolin-6-yl]methyl}pyrrolidin-3-yl]oxy}-1-oxo-2,3-dihydro-1H-isoindol-2-yl)piperidine-2,6-dione] | – | 3.08 nM | – | – | 29.16 | 1.89 nM | 9.504 |
| O=C1CCC(N2Cc3cc(O[C@H]4CCN(Cc5ccc6nc(N7CCC[C@@]78CCOC8)ccc6c5)C4)ccc3C2=O)C(=O)N1 (stereo partly drawn) [3-(5-{[(3S)-1-({2-[(5S)-7-oxa-1-azaspiro[4.4]nonan-1-yl]quinolin-6-yl}methyl)pyrrolidin-3-yl]oxy}-1-oxo-2,3-dihydro-1H-isoindol-2-yl)piperidine-2,6-dione] | 47 | 3.66 nM | 10.1 nM | – | – | – | 26.44 |

Now from value to compound, other results behind:

| 293T-LentiX WEE1-ePL Degradation 4 hr (Ymin) [1, 3] | DC50 [1] | EC50 [2, 4] | EC50 ([2]; growth inhibition) | 293T-LentiX WEE1-ePL Degradation 4 hr (Ymin) [1, 5] | EC50 ([2]; Homo sapiens, MKN-45, 120 h) | SMILES | MKN45 Cell Prolif. 120 hr (Ymin-Obs) [2] |
| --- | --- | --- | --- | --- | --- | --- | --- |
| 23.8 | 5.35 nM | – | 2.41 nM | – | – | CO[C@H]1C[C@@H](c2ccc3cc(CN4CC[C@H](Oc5ccc6c(c5)CN(C5CCC(=O)NC5=O)C6=O)C4)ccc3n2)C1 (stereo partly drawn) [drawing 581, 3-(1-oxo-5-{[(3S)-1-({2-[(1s,3s)-3-methoxycyclobutyl]quinolin-6-yl}methyl)pyrrolidin-3-yl]oxy}-2,3-dihydro-1H-isoindol-2-yl)piperidine-2,6-dione] | 7.75 |
| 28.33 | 3.2 nM | 0.741 nM | – | – | – | CO[C@H]1CC[C@@H](c2ccc3cc(CN4CC[C@H](Oc5ccc6c(c5)CN(C5CCC(=O)NC5=O)C6=O)C4)ccc3n2)C1 (stereo partly drawn) [3-(5-{[(3S)-1-({2-[(1R,3S)-3-methoxycyclopentyl]quinolin-6-yl}methyl)pyrrolidin-3-yl]oxy}-1-oxo-2,3-dihydro-1H-isoindol-2-yl)piperidine-2,6-dione] | 7.233 |
| 30.5 | 3.58 nM | 2.01 nM | – | – | – | CO[C@H]1CCC[C@H](c2ccc3cc(CN4CC[C@H](Oc5ccc6c(c5)CN(C5CCC(=O)NC5=O)C6=O)C4)ccc3n2)C1 (stereo partly drawn) [3-(5-{[(3S)-1-({2-[(1S,3S)-3-methoxycyclohexyl]quinolin-6-yl}methyl)pyrrolidin-3-yl]oxy}-1-oxo-2,3-dihydro-1H-isoindol-2-yl)piperidine-2,6-dione] | 9.255 |
| 31 | 3.18 nM | 1.18 nM | – | – | – | O=C1CCC(N2Cc3cc(O[C@H]4CCN(Cc5ccc6nc([C@@H]7CCC[C@@H](O)C7)ccc6c5)C4)ccc3C2=O)C(=O)N1 (stereo partly drawn) [3-(5-{[(3S)-1-({2-[(1R,3R)-3-hydroxycyclohexyl]quinolin-6-yl}methyl)pyrrolidin-3-yl]oxy}-1-oxo-2,3-dihydro-1H-isoindol-2-yl)piperidine-2,6-dione] | 8.405 |
| 34 | 21.8 nM | 18.5 nM | – | – | – | O=C1CCC(N2Cc3cc(O[C@@H]4CCN(Cc5ccc6nc([C@@H]7CCOC7)ncc6c5)C4)ccc3C2=O)C(=O)N1 (relative stereo) [rel-3-(1-oxo-5-{[(3R)-1-({2-[(3S)-oxolan-3-yl]quinazolin-6-yl}methyl)pyrrolidin-3-yl]oxy}-2,3-dihydro-1H-isoindol-2-yl)piperidine-2,6-dione] | 7.06 |
| 26.65 | 12.5 nM | 32.8 nM | – | – | – | O=C1CCC(N2Cc3cc(O[C@H]4CCN(Cc5ccc6nnccc6c5)C4)ccc3C2=O)C(=O)N1 (stereo partly drawn) [3-(5-{[(3S)-1-[(cinnolin-6-yl)methyl]pyrrolidin-3-yl]oxy}-1-oxo-2,3-dihydro-1H-isoindol-2-yl)piperidine-2,6-dione] | 8.19 |
| 32 | 3.8 nM | 5.02 nM | – | – | – | O=C1CCC(N2Cc3cc(O[C@H]4CCN(Cc5ccc6nc([C@H]7C[C@H](O)C7)ccc6c5)C4)ccc3C2=O)C(=O)N1 (stereo partly drawn) [3-(1-oxo-5-{[(3S)-1-({2-[(1r,3r)-3-hydroxycyclobutyl]quinolin-6-yl}methyl)pyrrolidin-3-yl]oxy}-2,3-dihydro-1H-isoindol-2-yl)piperidine-2,6-dione] | 7.85 |
| 33.67 | 5.4 nM | 20.8 nM | – | – | – | O=C1CCC(N2Cc3cc(O[C@H]4CCN(Cc5ccc6nc(CC(F)(F)F)ccc6c5)C4)ccc3C2=O)C(=O)N1 (stereo partly drawn) [3-(1-oxo-5-{[(3S)-1-{[2-(2,2,2-trifluoroethyl)quinolin-6-yl]methyl}pyrrolidin-3-yl]oxy}-2,3-dihydro-1H-isoindol-2-yl)piperidine-2,6-dione] | 13.32 |
| 33 | 7.04 nM | 3.12 nM | – | – | – | O=C1CCC(N2Cc3cc(O[C@H]4CCN(Cc5ccc6nc(CO[C@H]7CCOC7)ccc6c5)C4)ccc3C2=O)C(=O)N1 (stereo partly drawn) [3-(1-oxo-5-{[(3S)-1-[(2-{[(3S)-oxolan-3-yloxy]methyl}quinolin-6-yl)methyl]pyrrolidin-3-yl]oxy}-2,3-dihydro-1H-isoindol-2-yl)piperidine-2,6-dione] | 7.75 |
| 27.365 | 70.6 nM | 547 nM | – | – | – | O=C1CCC(N2Cc3cc(O[C@H]4CCN(Cc5cnc6ncccc6c5)C4)ccc3C2=O)C(=O)N1 (stereo partly drawn) [3-(5-{[(3S)-1-[(1,8-naphthyridin-3-yl)methyl]pyrrolidin-3-yl]oxy}-1-oxo-2,3-dihydro-1H-isoindol-2-yl)piperidine-2,6-dione] | 12.27 |
| 30 | 28.6 nM | 21.7 nM | – | – | – | CN1CCC(c2ccc3cc(CN4CC[C@H](Oc5ccc6c(c5)CN(C5CCC(=O)NC5=O)C6=O)C4)ccc3n2)CC1 (stereo partly drawn) [3-(5-{[(3S)-1-{[2-(1-methylpiperidin-4-yl)quinolin-6-yl]methyl}pyrrolidin-3-yl]oxy}-1-oxo-2,3-dihydro-1H-isoindol-2-yl)piperidine-2,6-dione] | 7.273 |
